Common to all, as to type: in vivo, mouse
Data set [1] relates to colitis animal model. Put plainly: TNBS colitis animal model: weight change, colon length, toxicity. As to conditions: TNBS colitis mice; oral once daily for 3 days; lactic acid bacteria 1×10^9 CFU, sulfasalazine 50 mg/kg.
Method: One group was used as a normal group, and the other group was treated with 2,4,6-trinitrobenzenesulfonic acid (TNBS) to induce colitis. Specifically, after test animals were anesthetized with ether, 0.1 ml of TNBS solution mixed with 50% ethanol was injected into the large intestine through the anus using a 1 ml syringe with a round tip, and the test animals were raised up vertically for 30 seconds to cause inflammation. Meanwhile, 0.1 ml of physiological saline was orally administered to the normal group. […] The next day when the lactic acid bacteria administration was finished, the test animal was sacrificed, and a portion of the colon from a cecum to a site immediately before the anus was removed and then a length thereof was measured. Then, various following indicators were identified based on the length. On the other hand, 1% dextrose solution as a suspension of lactic acid bacteria instead of the novel lactic acid bacteria was administered orally to the test animals in the normal group. Further, a test animal of a positive control group was orally treated with a colitis treatment drug sulfasalazine in an amount of 50 mg/kg instead of the novel lactic acid bacteria.
Data set [2] concerns myeloperoxidase (MPO). Put plainly: Colitis animal model: myeloperoxidase activity in colon tissue. Particulars: TNBS colitis mice, oral once daily for 3 days, lactic acid bacteria 1×10^9 CFU, sulfasalazine 50 mg/kg. On the procedure: 6 C57BL/6 mice (male, 21 to 23 g, 6 weeks old) formed one group which was adapted to a test room for 1 week. One group was used as a normal group, and the other group was treated with 2,4,6-trinitrobenzenesulfonic acid (TNBS) to induce colitis. Specifically, after test animals were anesthetized with ether, 0.1 ml of TNBS solution mixed with 50% ethanol was injected into the large intestine through the anus using a 1 ml syringe with a round tip, and the test animals were raised up vertically for 30 seconds to cause inflammation. Meanwhile, 0.1 ml of physiological saline was orally administered to the normal group. […] The next day when the lactic acid bacteria administration was finished, the test animal was sacrificed, and a portion of the colon from a cecum to a site immediately before the anus was removed and then a length thereof was measured. […]
200 μl of 10 mM potassium phosphate buffer (pH 7.0) containing 0.5% hexadecyl trimethyl ammonium bromide was added to 100 mg of colon tissue, and was homogenized. […] 50 μl of the supernatant was added to 0.95 ml of a reaction solution (containing 1.6 mM tetramethyl benzidine and 0.1 mM H2O2) and the absorbance was measured over time at 650 nm while reacting at 37° C. The activity of myeloperoxidase (MPO) was calculated while 1 μmol/ml of H2O2 generated as a reactant was defined as one unit.

In data set [3] the test system is TNF-α. The data set can be described thus: Colitis animal model: TNF-α in colon. As to conditions: colon tissue, TNBS colitis mice; oral once daily for 3 days; lactic acid bacteria 1×10^9 CFU. As for the experimental part:
(§1) 6 C57BL/6 mice (male, 21 to 23 g, 6 weeks old) formed one group which was adapted to a test room for 1 week. One group was used as a normal group, and the other group was treated with 2,4,6-trinitrobenzenesulfonic acid (TNBS) to induce colitis. Specifically, after test animals were anesthetized with ether, 0.1 ml of TNBS solution mixed with 50% ethanol was injected into the large intestine through the anus using a 1 ml syringe with a round tip, and the test animals were raised up vertically for 30 seconds to cause inflammation. Meanwhile, 0.1 ml of physiological saline was orally administered to the normal group. After the administration, the novel lactic acid bacterium Lactobacillus mucosae NK41, Bifidobacterium longum NK46 or a 1:1 mixture thereof was suspended in physiological saline which in turn was orally administered thereto in an amount of 1×10^9 CFU once daily for 3 days from a next day. The next day when the lactic acid bacteria administration was finished, the test animal was sacrificed, and a portion of the colon from a cecum to a site immediately before the anus was removed and then a length thereof was measured. […]
(§2) Western blotting methods were used to measure inflammatory response indicator materials, such as p-p65, p65, COX-2 and IL-17. […] Further, the expression level of cytokines thereof was measured using an ELISA kit.

Data set [4] deals with IL-17. The data set can be described thus: Colitis animal model: IL-17 in colon. As to conditions: colon tissue, TNBS colitis mice; oral once daily for 3 days; lactic acid bacteria 1×10^9 CFU, sulfasalazine 50 mg/kg. On the procedure: as §1, §2
Data set [5] relates to COX-2. Put plainly: Colitis animal model: COX-2 in colon. As to conditions: colon tissue, TNBS colitis mice; oral once daily for 3 days; lactic acid bacteria 1×10^9 CFU, sulfasalazine 50 mg/kg. As for the experimental part:
as §1, §2

As for `O=C(O)c1cc(/N=N/c2ccc(S(=O)(=O)Nc3ccccn3)cc2)ccc1O` [Positive group, sulfasalazine], in data set [1], the Colon length is on record as 4.7 cm and the Weight change was -0.54 g. This molecule also showed an MPO activity in data set [2] of 0.98 μU/mg. The molecule also came in with a TNF-α in data set [3] of 75 pg/mg. The same molecule returned an IL-17 in data set [4] of 41 pg/mg. The COX-2 activity in data set [5] is given as 0.41.

Source of the values: US11324786B2, “Lactic acid bacteria and use thereof” (priority 2017, dated 2022).
